In patent publication US12226417B2, “Fatty liver disease treatment using glucocorticoid and mineralocorticoid receptor antagonists” (Corcept Therapeutics, Inc., priority 2014, dated 2025):

Columns and labels:
[1] = biological target: T1, progesterone receptor (PR) (Homo sapiens, UniProt P06401); assay: PR reporter gene assay using T47D/MMTV-5 cells; type: cell-based; conditions: antagonist mode, 50 nM progesterone
T1 construct: containing endogenous mineralocorticoid and progesterone receptors (PR); endogenous in cells; host or cells: T47D/MMTV-5 (human breast carcinoma, stably transfected with pMAMneo-Luc reporter)
T1 sequence (P06401 1-933): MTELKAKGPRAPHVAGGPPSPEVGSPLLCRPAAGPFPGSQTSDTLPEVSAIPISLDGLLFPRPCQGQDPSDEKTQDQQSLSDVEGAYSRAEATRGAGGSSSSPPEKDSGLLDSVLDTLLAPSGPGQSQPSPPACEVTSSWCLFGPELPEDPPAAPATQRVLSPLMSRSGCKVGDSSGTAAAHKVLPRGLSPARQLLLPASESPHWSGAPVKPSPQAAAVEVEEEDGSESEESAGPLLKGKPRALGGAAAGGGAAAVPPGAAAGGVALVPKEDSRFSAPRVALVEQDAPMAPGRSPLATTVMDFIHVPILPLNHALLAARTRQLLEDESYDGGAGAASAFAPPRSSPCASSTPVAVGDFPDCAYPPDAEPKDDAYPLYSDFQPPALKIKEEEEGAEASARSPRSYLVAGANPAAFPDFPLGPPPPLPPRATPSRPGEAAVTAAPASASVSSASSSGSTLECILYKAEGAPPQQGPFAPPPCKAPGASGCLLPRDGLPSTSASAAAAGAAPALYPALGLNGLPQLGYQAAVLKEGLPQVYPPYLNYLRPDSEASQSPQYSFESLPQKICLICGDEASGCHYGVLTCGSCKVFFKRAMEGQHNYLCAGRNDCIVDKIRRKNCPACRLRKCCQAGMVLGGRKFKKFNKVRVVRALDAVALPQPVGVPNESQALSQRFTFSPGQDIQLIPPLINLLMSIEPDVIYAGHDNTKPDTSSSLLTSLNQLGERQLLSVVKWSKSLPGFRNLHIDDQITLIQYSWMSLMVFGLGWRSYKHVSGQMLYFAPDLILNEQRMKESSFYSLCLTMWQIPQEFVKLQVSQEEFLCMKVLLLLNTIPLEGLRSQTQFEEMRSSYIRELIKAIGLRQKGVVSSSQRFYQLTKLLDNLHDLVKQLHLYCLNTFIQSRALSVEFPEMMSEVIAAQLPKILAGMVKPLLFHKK
Description: (§1) As described for the SW1353 cell line above, T47D cells were transfected with the same pMAMneo-Luc plasmid, and stable lines were selected with geneticin.
(§2) T47D/MMTV-5 calls were distributed in 96-well plates (100 μl) in RPMI640 medium+10% charcoal stripped FCS. The cells were incubated for 24 hours in a CO2 oven.

human recombinant MR = biological target: T2, human recombinant MR (Homo sapiens, UniProt P08235); assay: MR protein:protein interaction assay (DiscoveRx, CHO-K1, PGC1α); type: cell-based
T2 construct: β-galactosidase enzyme fragment (complementation partner); host or cells: CHO-K1
T2 sequence (P08235 1-984): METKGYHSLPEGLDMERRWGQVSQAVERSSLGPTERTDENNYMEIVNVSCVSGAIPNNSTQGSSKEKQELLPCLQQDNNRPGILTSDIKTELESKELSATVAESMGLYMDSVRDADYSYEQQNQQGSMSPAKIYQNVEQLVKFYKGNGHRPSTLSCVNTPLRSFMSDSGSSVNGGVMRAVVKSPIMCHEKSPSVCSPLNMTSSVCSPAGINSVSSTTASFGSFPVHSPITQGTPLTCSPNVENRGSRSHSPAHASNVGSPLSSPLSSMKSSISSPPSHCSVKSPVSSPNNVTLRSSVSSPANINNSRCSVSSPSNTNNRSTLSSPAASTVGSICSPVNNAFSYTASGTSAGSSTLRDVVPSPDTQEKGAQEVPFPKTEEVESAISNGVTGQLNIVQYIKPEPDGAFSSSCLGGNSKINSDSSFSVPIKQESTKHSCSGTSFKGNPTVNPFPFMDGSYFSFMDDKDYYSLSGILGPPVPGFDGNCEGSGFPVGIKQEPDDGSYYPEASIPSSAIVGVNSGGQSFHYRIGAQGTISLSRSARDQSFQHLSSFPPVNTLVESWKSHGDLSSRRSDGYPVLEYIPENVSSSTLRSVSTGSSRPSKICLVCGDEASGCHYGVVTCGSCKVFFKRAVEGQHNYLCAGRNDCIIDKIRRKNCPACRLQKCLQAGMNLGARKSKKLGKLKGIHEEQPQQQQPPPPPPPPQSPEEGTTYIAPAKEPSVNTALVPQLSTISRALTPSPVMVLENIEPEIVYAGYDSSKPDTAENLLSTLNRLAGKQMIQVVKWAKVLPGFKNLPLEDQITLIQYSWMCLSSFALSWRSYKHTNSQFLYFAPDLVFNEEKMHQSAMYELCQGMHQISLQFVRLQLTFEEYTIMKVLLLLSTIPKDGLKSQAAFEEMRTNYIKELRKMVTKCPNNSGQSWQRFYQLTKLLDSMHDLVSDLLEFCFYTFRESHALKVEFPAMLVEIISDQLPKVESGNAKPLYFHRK
Description: (§3) Protein:protein interaction assays were used to determine the ability of test compounds to act as antagonists of the glucocorticoid receptor and/or mineralocorticoid receptor. These assays utilize a commercial assay platform provided by DiscoveRx Corp. (Fremont, CA). DiscoveRx technology is based on β-galactosidase enzyme fragment complementation using a luminogenic substrate. Briefly, Chinese hamster ovary cells (CHO-K1) have been engineered to express either human recombinant GR or MR together with a steroid responsive coactivator protein (SRCP) called PGC1α (peroxisome proliferator activated receptor gamma coactivator lα). The assay measures the net outcome of GR or MR activation, i.e., nuclear translocation from the cytoplasm and interaction of the GR or MR with the coactivator PGC1α in the cell nucleus. The assay can be configured in both agonist and antagonist modes.
(§4) The cells (100 μl) were plated into 96 well plates and placed in a 37° C., 5% CO2 incubator for 24 hours. After removing the cells from the incubator, 5 μl of test compound or vehicle was added to each well, and the plates were incubated for 1 hour at 37° C., 5% CO2. […] The detection reagent was added, 55 μl per well, and the plates were incubated at room temperature in the dark without mixing. The plates were read for luminescence using an EnVision® (Perkin Elmer, Walthan, MA) plate reader (3 hour read).

human recombinant GR = biological target: T3, human recombinant GR (Homo sapiens, UniProt P04150); assay: GR protein:protein interaction assay (DiscoveRx, CHO-K1, PGC1α); type: cell-based
T3 construct: β-galactosidase enzyme fragment (complementation partner); host or cells: CHO-K1
T3 sequence (P04150 1-777): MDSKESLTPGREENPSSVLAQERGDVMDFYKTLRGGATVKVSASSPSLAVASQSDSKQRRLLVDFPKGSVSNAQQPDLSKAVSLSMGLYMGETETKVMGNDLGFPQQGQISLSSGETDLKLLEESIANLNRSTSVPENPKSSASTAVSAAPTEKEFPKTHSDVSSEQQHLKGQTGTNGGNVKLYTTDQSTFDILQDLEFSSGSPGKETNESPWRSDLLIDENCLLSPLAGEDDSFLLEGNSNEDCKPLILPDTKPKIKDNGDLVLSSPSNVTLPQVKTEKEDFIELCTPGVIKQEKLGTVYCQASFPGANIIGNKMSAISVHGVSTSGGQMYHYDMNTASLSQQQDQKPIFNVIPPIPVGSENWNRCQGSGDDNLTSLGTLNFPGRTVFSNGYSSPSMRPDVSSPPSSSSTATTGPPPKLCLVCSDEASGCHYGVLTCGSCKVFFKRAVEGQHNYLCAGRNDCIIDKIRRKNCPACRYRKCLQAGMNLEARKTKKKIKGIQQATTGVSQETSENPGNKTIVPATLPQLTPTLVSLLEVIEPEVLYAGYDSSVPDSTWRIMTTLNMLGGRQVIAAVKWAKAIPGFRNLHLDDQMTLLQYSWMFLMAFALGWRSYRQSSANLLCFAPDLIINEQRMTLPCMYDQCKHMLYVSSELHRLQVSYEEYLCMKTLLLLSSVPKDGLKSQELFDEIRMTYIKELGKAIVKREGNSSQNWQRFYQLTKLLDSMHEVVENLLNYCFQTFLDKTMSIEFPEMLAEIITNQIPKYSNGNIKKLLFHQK
Description: as §3
as §4, with “EnVision®” for “EnVision® (Perkin Elmer, Walthan, MA)”

[2] = biological target: T4, mineralocorticoid receptor (MR) (Homo sapiens, UniProt P08235); assay: MR reporter gene assay using T47D/MMTV-5 cells; type: cell-based
T4 construct: containing endogenous mineralocorticoid and progesterone receptors (PR); endogenous in cells; host or cells: T47D/MMTV-5 (human breast carcinoma, stably transfected with pMAMneo-Luc reporter)
T4 sequence (P08235 1-984): T2 sequence (P08235 1-984)
Description: as §1, §2

[3] = tested on: C57B16/J mice given a high fat diet; assay: Determination of liver lipids in mice fed a high fat diet (Oil Red O staining); type: in vivo, mouse; conditions: high fat diet (60% fat) three weeks; for fatty liver compared to the controls: 60 mg/kg/day in the food
Description: C57B16/J mice (n=8 per group) were given a high fat diet (60% fat) for three weeks and then sacrificed. Livers were collected and weighed. Liver slices were prepared and analysed for lipid levels by Oil Red 0 staining (FIGS. 1 and 3). One group of mice received Compound 1 mixed in the food (60 mg/kg/day) whilst another group of mice received vehicle mixed in the food. […] Compound 1 has GR antagonist activity and some MR antagonist activity.

[4] = biological target: T5, glucocorticoid receptor (GR) (Homo sapiens, UniProt P04150); assay: GR reporter gene assay using SW1353/MMTV-5 cells; type: cell-based
T5 construct: contains endogenous glucocorticoid receptors; endogenous in cells; host or cells: SW1353/MMTV-5 (human chondrosarcoma, stably transfected with pMAMneo-Luc reporter)
T5 sequence (P04150 1-777): T3 sequence (P04150 1-777)
Description: SW1353/MMTV-5 is an adherent human chondrosarcoma cell line that contains endogenous glucocorticoid receptors. It was transfected with a plasmid (pMAMneo-Luc) encoding firefly luciferase located behind a glucocorticoid-responsive element (GRE) derived from a viral promoter (long terminal repeat of mouse mammary tumor virus). A stable cell line SW1353/MMTV-5 was selected with geneticin, which was required to maintain this plasmid.
SW1353/MMTV-5 cells were distributed in 96-well plates and incubated in medium (without geneticin) for 24 hrs.

Q: How did the “activity in progesterone receptor reporter gene assay” value [1] turn out when `O=c1[nH]c(=O)c(Cc2cccc(C(F)(F)F)c2)c([C@H]2CC[C@H](c3ccccc3)CC2)[nH]1` [Compound 1, (E)-6-(4-phenylcyclohexyl)-5-(3-trifluoromethylbenzyl)-1H-pyrimidine-2,4-dione] was run?
A: Its value is “inactive”.

Q: What about the Ki (human recombinant MR) of the same molecule?
A: The Ki was 125 nM.

Q: What about the Ki (human recombinant GR) of the same molecule?
A: Its Ki is 118 nM.

Q: And the Ki [2]?
A: Its Ki is 148 nM.

Q: And the “fatty liver compared to the controls” value [3]?
A: The value was “did not induce fatty liver”.

Q: What about the “lipid droplets in livers (Oil Red O staining)” value ([3]; 60 mg/kg/day mixed in the food, versus vehicle control) of the same molecule?
A: Its value is “no or low level of lipid droplets”.

Q: And the Ki [4]?
A: The Ki was 24 nM.

Q: With `CC#C[C@]1(O)CC[C@H]2[C@@H]3CCC4=CC(=O)CCC4=C3[C@@H](c3ccc(N(C)C)cc3)C[C@@]21C` [mifepristone, reference compound] as the molecule, how does the “fatty liver compared to the controls” value [3] read?
A: Its value is “increased fatty liver compared to the controls”.
